Patent US6303591A, “21-hydroxy-6,19-oxidoprogesterone (21OH-6OP) and its use as medicament for treating excess of glucocorticoids” (Applied Research Systems ARS Holding NV, priority 1997, dated 2001)
“Also recorded” adds a separate entry of the source.

Columns and labels:
[1] = biological target: T1, type I receptors (kidney MR) (Rattus norvegicus, UniProt P22199); experiment: tracer binding (Scatchard) to kidney type I sites (MR); conditions: for nH, type I: Hill coefficient; for Q, type I: apparent number of sites
T1 construct: kidneys as a source of MR; from tissue; host or cells: kidney cytosol, adrenalectomized male Sprague-Dawley rats
T1 sequence (P22199 1-981): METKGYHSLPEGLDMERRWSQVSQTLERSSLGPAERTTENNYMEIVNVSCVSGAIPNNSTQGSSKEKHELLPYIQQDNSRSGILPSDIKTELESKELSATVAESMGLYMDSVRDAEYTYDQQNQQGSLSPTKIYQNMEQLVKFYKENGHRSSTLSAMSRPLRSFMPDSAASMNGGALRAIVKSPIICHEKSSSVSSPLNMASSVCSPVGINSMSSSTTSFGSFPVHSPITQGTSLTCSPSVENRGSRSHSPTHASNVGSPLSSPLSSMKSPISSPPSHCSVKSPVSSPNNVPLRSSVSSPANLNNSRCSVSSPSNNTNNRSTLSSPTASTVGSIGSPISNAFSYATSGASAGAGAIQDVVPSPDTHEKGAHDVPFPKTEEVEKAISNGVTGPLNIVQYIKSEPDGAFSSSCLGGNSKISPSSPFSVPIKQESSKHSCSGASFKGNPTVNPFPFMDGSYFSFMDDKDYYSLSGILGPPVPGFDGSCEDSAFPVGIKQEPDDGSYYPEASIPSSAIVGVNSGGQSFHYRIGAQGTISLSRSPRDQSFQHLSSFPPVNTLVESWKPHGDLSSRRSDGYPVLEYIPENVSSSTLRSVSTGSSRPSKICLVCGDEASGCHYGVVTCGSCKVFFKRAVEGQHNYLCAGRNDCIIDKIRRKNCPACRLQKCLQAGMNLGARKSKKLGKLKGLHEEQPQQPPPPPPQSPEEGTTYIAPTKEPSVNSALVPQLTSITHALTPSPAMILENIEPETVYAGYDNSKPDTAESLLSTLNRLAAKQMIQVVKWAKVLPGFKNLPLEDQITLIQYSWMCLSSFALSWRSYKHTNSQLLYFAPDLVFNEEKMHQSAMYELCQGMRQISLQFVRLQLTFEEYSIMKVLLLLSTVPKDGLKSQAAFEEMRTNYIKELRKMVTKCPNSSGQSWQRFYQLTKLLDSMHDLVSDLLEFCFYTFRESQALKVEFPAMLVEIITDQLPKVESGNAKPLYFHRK
Description: Binding Assay: Adrenalectomized male Sprague-Dawley rats were bled to death by heart puncture. Cold 0.9% NaCI was injected profusely through the aorta until organs were completely blanched. Thymuses were used as a source of GR and kidneys as a source of MR. Homogenization and incubation conditions were performed as previously described, (14) and (15), respectively. Briefly, homogenates performed in cold TEGM buffer at pH 7.4 (0.1 M Tris-HCl, 10 mM EDTA, 10 mM α-mercaptoethanol, 20 mM Na2 MoO4, 25% glycerol, 0.1 mM PMSF, 2.0 TIU/ml aprotinin and 1 mg% Leupeptin) were centrifuged at 37,000 rev. for 30 min at 0° C. Supernatants from this centrifugation are referred to as "cytosol". […] (^3 H)-P4 binding to uterus PR was assayed on immature female rats according to Jordan et al (16). […]
(§1) To study the binding of ALDO to kidney- MR without the competitive influence of the relatively more abundant GR, GR was removed with the specific ligand RU28362 (7).

[2] = tested on: hippocampus type I MR; conditions: ref (9); cited from earlier work
[3] = tested on: Na^+ retention (sodium-excretion rate); conditions: earlier study, ref (5); cited from earlier work
[4] = tested on: Na^+ retention (sodium-excretion rate); experiment: Na^+ -retaining activity, adrenalectomized rats; format: in vivo, rat
Description: (§2) FIG. 3: Biological Properties of 21OH-6OP: A) Glycogen storage in vivo: 100 μg steroid/100 g body weight of male rats were injected as indicated in Example 1. Liver glycogen was purified and quantified with Krisman's reagent (17). Controls were injected with vehicle. Results are expressed as means±SEM (n=6). (*): different from controls P<0.02. B) TAT induction in vitro: rat hepatocytes were incubated for 5 h in HAM-F12 medium in the presence of 100 nM steroid and TAT activity was measured. Results are expressed as percentage of enzyme activity (means±SEM, n=4) over controls incubated in the presence of vehicle. (*) different from controls P<0.01. C) Sodium-retaining activity: adrenalectomized rats were treated with the indicated dose of steroids. Results are expressed as the ratio of sodium-excretion rates of steroid-injected animals to the excretion rates of rats injected with vehicle.
(§3) Bioassay : Liver glycogen deposition was measured on adrenalectoniized male Sprague-Dawley rats (180-220 g) as follows: steroids were dissolved in ethanol/propylene glycol/0.9% NaCl solution (3:3:34) and 100 μg steroid/l00 g body weight were injected i.m. the previous night. On the morning of the experiment this dose was reinjected intraperitoneally. Three hours later the rats were killed by cervical dislocation and livers were immediately removed. Glycogen purification and quantification were carried out according to Krisman's method (17). Na^+ -retaining properties were measured as described (5). Tyrosine aminotransferase (TAT) was induced in rat hepatocytes isolated by the procedure of Fry et al (18). TAT activity was determined according to Granner and Tomkins (19).

[5] = tested on: liver glycogen; experiment: liver glycogen deposition in vivo, adrenalectomized rats; parameters: species or system rat; conditions: 100 μg steroid/100 g body weight; for liver glycogen deposits: compared to ADX controls
Description: as §2, §3

[6] = tested on: TAT induction in hepatocytes (GR); experiment: antagonism of TAT induction by DXM or B in hepatocytes; format: cell-based, rat; conditions: 2.5 μM steroid
Description: (§4) Hatched bars represent incubations performed in the presence of vehicle instead of agonist.
as §3
(§5) The basal TAT activity in hepatocytes, denominated control in the figure, was measured by adding vehicle (final concentration: 0.2% ethanol) to the culture. […] 2.5 μM 21OH-6OP inhibits 80% of TAT induction when concubated with B or DXM.

[7] = tested on: tyrosine aminotransferase (TAT) induction in rat hepatocytes; experiment: TAT induction in rat hepatocytes (agonism); format: cell-based; conditions: for increase of TAT activity: 100 nM steroid, rat hepatocytes
Description: as §2, §4, §3, §5

[8] = biological target: T2, type II sites (GR) (Rattus norvegicus, UniProt P06536); experiment: tracer binding (Scatchard) to kidney type II sites (GR); conditions: no competitor
T2 construct: type II receptors in kidney cytosols; from tissue; host or cells: kidney cytosol, adrenalectomized male Sprague-Dawley rats
T2 sequence (P06536 1-795): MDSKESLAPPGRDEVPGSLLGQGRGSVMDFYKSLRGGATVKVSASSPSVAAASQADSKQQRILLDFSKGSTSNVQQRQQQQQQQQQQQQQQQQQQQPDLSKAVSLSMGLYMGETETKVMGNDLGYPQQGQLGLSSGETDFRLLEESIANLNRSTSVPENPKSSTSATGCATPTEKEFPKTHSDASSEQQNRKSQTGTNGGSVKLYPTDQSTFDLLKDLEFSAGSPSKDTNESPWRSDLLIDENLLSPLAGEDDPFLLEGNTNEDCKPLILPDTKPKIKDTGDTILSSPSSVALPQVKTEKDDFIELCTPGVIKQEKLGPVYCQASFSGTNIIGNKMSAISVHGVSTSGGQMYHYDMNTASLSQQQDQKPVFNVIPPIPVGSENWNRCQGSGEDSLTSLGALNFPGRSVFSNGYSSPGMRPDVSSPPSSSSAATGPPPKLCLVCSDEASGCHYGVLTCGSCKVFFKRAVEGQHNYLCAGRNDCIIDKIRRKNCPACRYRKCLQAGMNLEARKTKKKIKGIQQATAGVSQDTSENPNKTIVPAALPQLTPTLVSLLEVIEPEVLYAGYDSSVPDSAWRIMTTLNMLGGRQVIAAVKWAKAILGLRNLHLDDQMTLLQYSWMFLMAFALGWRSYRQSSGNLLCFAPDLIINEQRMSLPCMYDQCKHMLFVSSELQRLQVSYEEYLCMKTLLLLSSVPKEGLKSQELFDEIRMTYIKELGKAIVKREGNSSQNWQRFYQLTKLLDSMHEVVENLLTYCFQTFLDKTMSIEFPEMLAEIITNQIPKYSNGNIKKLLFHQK
Description: Binding Assay: Adrenalectomized male Sprague-Dawley rats were bled to death by heart puncture. Cold 0.9% NaCI was injected profusely through the aorta until organs were completely blanched. Thymuses were used as a source of GR and kidneys as a source of MR. Homogenization and incubation conditions were performed as previously described, (14) and (15), respectively. Briefly, homogenates performed in cold TEGM buffer at pH 7.4 (0.1 M Tris-HCl, 10 mM EDTA, 10 mM α-mercaptoethanol, 20 mM Na2 MoO4, 25% glycerol, 0.1 mM PMSF, 2.0 TIU/ml aprotinin and 1 mg% Leupeptin) were centrifuged at 37,000 rev. for 30 min at 0° C. Supernatants from this centrifugation are referred to as "cytosol". […] (^3 H)-P4 binding to uterus PR was assayed on immature female rats according to Jordan et al (16).
as §1
The calculated Kd for type I sites in different conditions ranges between 0.4 and 1 nM (Table 1) which is at least eighty times higher than the affinity for type II sites.

[9] = tested on: inoperable cases of nonpituitary Cushing's syndrome; conditions: cited from earlier work
[10] = tested on: PR; conditions: background; cited from earlier work
[11] = in the presence of 2.5 μM 21OH-6OP
[12] = in the presence of 10 μM RU-28362

COC(=O)[C@@H]1CC2=CC(=O)CC[C@]2(C)[C@H]2CC[C@@]3(C)[C@@H]([C@@H]4C[C@@H]4[C@@]34CCC(=O)O4)[C@H]12 [(^3 H)-ZK91587]
nH, type I ([1]; no competitor): 0.91
Q, type I ([1]; no competitor): 98 fmol/mg
Kd ([1]; no competitor): 0.42 nM
binding to hippocampus type I MR [2]: hippocampus type I MR (9)

CC(=O)[C@H]1CC[C@H]2[C@@H]3C[C@H]4OC[C@@]5(CCC(=O)C=C45)[C@H]3CC[C@]12C [6OP, 6,19-oxidoprogesterone]
Na^+ retaining properties [3]: exhibited practically no Na^+ retaining properties
Na^+ -retaining (MC) properties (in words) ([4]; FIG. 3-C): weak Na^+ -retainer; also recorded: then loosing activity at still higher doses
maximum Na^+ retention ([4]; maximum of parabolic dose-response, at high doses): 50%
GC response: liver glycogen ([5]; FIG. 3-A): neither 6OP nor 21OH-6OP evoke these responses
antagonism of TAT induction by B (in words) ([6]; 100 nM B): significantly different (P<0.01) from the basal activity
antagonism of TAT induction by DXM (in words) ([6]; 100 nM DXM): significantly different (P<0.01) from the basal activity
TAT induction (in words) ([7]; FIGS. 3-B and 4 (hatched bars), no agonist added): neither 6OP nor 21OH-6OP evoke these responses; also recorded: Neither 6OP nor 21OH-6OP facilitate TAT induction
GC properties ([7]; preliminary studies, test not specified): lack of GC properties

C[C@]12CCC(=O)C=C1CC[C@@H]1[C@@H]2[C@@H](O)C[C@]2(C=O)[C@@H](C(=O)CO)CC[C@@H]12 [(^3 H)-ALDO, Aldosterone]
nH, type II ([8]; Hill coefficient): 0.86
Q, type II ([8]; apparent number of sites): 2900 fmol/mg
Kd [8]: 64.4 nM
nH, type I [1, 11]: 0.88
nH, type I [1, 12]: 0.90
nH, type I ([1]; no competitor): 0.97
Q, type I [1, 11]: 110 fmol/mg
Q, type I [1, 12]: 124.4 fmol/mg
Q, type I ([1]; no competitor): 104 fmol/mg

CC#C[C@]1(O)CC[C@H]2[C@@H]3CCC4=CC(=O)CCC4=C3[C@@H](c3ccc(N(C)C)cc3)C[C@@]21C [RU38486]
dose needed for effectiveness [9]: 20-800 mg per day
antiprogestin activity [10]: strong antiprogestin activity

CC#C[C@]1(O)CC[C@H]2[C@@H]3C=C(C)C4=CC(=O)C=C[C@]4(C)[C@H]3[C@@H](O)C[C@@]21C [RU28862]
reduction of (^3 H)-ALDO Scatchard plot to type I sites ([1]; 1.0 μM RU28862, selective MR ligand ZK91587): reduces the plot to a single line corresponding to type I sites

C[C@@H]1C[C@H]2[C@@H]3CCC4=CC(=O)C=C[C@]4(C)[C@@]3(F)[C@@H](O)C[C@]2(C)[C@@]1(O)C(=O)CO [DXM, dexamethasone]
liver glycogen deposits [5]: between three and four times more
increase of TAT activity [7]: between five and six times

C[C@]12C[C@H](O)[C@H]3[C@@H](CCC4=CC(=O)CC[C@@]43C)[C@@H]1CC[C@@H]2C(=O)CO [B, corticosterone]
liver glycogen deposits [5]: between three and four times more
increase of TAT activity [7]: between five and six times
